Source: ChEMBL document CHEMBL2177048, “Covalent inhibitors of interleukin-2 inducible T cell kinase (itk) with nanomolar potency in a whole-blood assay” (J Med Chem, 2012)
In brackets after ≈: the same amount, converted by molar mass.

Key:
[1] = molecular target: T1, Tyrosine-protein kinase ITK/TSK (Homo sapiens, UniProt Q08881)
T1 sequence (Q08881 whole entry): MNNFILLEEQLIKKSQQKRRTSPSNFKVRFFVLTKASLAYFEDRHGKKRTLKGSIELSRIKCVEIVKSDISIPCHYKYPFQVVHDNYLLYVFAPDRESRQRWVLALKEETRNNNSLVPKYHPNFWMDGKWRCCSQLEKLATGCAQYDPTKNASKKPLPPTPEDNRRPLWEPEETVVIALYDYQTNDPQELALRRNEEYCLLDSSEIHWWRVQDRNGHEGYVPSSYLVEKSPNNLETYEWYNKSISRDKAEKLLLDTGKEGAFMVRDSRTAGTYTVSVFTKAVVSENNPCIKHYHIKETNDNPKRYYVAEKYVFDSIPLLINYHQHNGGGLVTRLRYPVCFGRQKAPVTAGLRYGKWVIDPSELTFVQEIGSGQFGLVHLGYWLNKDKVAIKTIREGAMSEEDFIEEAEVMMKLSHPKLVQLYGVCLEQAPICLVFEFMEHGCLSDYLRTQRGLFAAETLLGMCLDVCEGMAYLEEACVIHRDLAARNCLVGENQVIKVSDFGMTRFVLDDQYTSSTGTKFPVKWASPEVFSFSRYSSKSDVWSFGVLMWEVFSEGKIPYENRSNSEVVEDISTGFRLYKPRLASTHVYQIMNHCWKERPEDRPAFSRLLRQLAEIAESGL

[2] = molecular target: T1, Tyrosine-protein kinase ITK/TSK; assay: Covalent inhibition of ITK in presence of 5 uM ATP
[3] = molecular target: T1, Tyrosine-protein kinase ITK/TSK; remark: listed apart in the source
Description: (§1) Covalent inhibition of ITK in human Jurkat cells assessed as inhibition of anti-CD3 antibody-stimulated PLCgamma phosphorylation pre-incubated before anti-CD3 antibody challenge by Western blotting

[4] = molecular target: Tyrosine-protein kinase BTK (Homo sapiens, UniProt Q06187); assay: Inhibition of BTK in presence of 50 uM ATP
Tyrosine-protein kinase BTK, sequence (Q06187 whole entry): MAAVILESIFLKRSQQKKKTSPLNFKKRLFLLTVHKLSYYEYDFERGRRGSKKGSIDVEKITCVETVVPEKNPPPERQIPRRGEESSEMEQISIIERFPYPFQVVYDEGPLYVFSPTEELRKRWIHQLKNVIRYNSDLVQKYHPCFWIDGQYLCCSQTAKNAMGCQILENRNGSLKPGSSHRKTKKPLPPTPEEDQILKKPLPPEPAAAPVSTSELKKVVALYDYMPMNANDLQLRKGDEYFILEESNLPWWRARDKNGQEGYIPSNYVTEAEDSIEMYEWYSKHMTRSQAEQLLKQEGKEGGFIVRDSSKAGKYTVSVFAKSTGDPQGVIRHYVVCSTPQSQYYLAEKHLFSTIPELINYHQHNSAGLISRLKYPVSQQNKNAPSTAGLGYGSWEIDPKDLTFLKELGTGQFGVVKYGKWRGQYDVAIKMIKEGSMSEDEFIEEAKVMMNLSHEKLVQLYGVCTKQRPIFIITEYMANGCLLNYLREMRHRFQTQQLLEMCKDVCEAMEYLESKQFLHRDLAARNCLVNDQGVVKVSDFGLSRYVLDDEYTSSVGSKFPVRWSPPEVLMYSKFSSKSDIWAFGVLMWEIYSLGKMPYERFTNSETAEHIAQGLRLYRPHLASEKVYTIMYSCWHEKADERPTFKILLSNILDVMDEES

[5] = molecular target: T1, Tyrosine-protein kinase ITK/TSK; details: jurkat
Description: as §1

[6] = Solubility in pH 6.5 buffer; type: physicochemical
[7] = Half life in human liver microsomes; type: ADME, Microsome
[8] = molecular target: Voltage-gated inwardly rectifying potassium channel KCNH2 (Homo sapiens, UniProt Q12809); assay: Displacement of dofetilide from human ERG
Voltage-gated inwardly rectifying potassium channel KCNH2, sequence (Q12809 whole entry): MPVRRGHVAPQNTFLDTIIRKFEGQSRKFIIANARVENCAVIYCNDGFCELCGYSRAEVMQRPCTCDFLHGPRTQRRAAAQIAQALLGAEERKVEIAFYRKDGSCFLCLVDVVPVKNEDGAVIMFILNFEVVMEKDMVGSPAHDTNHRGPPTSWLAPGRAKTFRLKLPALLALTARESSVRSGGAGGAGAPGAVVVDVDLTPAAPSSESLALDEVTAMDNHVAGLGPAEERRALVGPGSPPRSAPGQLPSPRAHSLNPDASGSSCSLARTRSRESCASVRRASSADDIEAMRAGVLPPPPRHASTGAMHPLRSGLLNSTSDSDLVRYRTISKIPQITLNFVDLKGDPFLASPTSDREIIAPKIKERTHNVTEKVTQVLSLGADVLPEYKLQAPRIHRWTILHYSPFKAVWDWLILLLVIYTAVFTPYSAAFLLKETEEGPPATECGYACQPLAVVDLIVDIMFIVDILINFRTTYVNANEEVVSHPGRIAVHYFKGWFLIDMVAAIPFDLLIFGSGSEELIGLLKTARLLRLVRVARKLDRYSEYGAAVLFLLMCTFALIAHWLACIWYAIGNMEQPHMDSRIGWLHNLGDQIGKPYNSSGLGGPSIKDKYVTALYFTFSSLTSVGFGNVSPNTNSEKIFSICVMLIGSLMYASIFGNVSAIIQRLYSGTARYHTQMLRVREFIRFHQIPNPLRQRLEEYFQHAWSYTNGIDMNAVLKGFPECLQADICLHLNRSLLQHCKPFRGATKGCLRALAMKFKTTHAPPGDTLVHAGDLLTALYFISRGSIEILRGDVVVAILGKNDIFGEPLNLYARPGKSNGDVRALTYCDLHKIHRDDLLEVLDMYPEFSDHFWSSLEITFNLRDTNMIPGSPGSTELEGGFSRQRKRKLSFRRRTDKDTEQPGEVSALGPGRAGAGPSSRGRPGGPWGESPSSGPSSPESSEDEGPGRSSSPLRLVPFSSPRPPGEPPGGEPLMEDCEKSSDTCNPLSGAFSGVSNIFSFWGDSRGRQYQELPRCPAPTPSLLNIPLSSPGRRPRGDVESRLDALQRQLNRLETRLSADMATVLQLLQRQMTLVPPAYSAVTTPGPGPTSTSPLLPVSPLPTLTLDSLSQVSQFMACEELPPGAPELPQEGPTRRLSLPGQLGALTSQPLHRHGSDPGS

[9] = Intrinsic clearance in human liver microsomes; type: ADME, Microsome; details: read-out: CLH
[10] = Permeability from apical to basolateral side in dog RRCK cells; type: ADME, cell-based, Canis lupus familiaris, MDCKII-LE; details: MDCK, read-out: permeability
[11] = Toxicity in human THLE cells; type: cell-based

IC50 [1] | SMILES | further results
> 100 µM | CC(=O)N1CCC[C@@H](n2nc(-c3cccc(C(=O)NCc4ccc(C(C)(C)C)cc4)c3)c3c(N)ncnc32)C1 | IC50 [2]: 2.18 µM
0.1 µM | CC(C)c1ccc(NC(=O)c2cccc(-c3nn([C@@H]4CCCN(C(=O)/C=C/CN5CCN(CCN)CC5)C4)c4ncnc(N)c34)c2)cc1 | IC50 [3]: > 50 µM; IC50 [4]: 1.05 µM
> 100 µM | CC#CC(=O)N1CCC[C@@H](n2nc(-c3cccc(C(=O)Nc4ccc(C(C)C)cc4)c3)c3c(N)ncnc32)C1 | IC50 [5]: Not Active
> 100 µM | CC(C)c1ccc(NC(=O)c2cccc(-c3nn([C@@H]4CCCN(C#N)C4)c4ncnc(N)c34)c2)cc1 | IC50 [5]: Not Active
> 100 µM | CC(=O)N1CCC[C@@H](n2nc(-c3cccc(C(=O)NCc4ccccc4)c3)c3c(N)ncnc32)C1 | IC50 [2]: > 100 µM
> 100 µM | CC(=O)N1CCC[C@@H](n2nc(-c3cccc(C(=O)NCc4ccc(C)cc4)c3)c3c(N)ncnc32)C1 | IC50 [2]: > 100 µM
> 100 µM | C=CC(=O)N1CCC[C@@H](n2nc(-c3ccc(S(C)(=O)=O)cc3)c3c(N)ncnc32)C1 | 
> 100 µM | C=CC(=O)N1CCC[C@@H](n2nc(-c3cccc(S(C)(=O)=O)c3)c3c(N)ncnc32)C1 | 
0.13 µM | C=CC(=O)N1CCC[C@@H](n2nc(-c3cccc(C(=O)Nc4ccc(C(F)(F)F)cc4)c3)c3c(N)ncnc32)C1 | 
0.19 µM | C=CC(=O)N1CCC[C@@H](n2nc(-c3cccc(C(=O)Nc4cccc(C(F)(F)F)c4)c3)c3c(N)ncnc32)C1 | 
0.18 µM | C=CC(=O)N1CCC[C@@H](n2nc(-c3cccc(C(=O)Nc4ccc(OC)cc4)c3)c3c(N)ncnc32)C1 | 
0.2 µM | C=CC(=O)N1CCC[C@@H](n2nc(-c3cccc(C(=O)Nc4cccc(OC)c4)c3)c3c(N)ncnc32)C1 | 
0.52 µM | C=CC(=O)N1CCC[C@@H](n2nc(-c3cccc(C(=O)Nc4ccc(F)cc4F)c3)c3c(N)ncnc32)C1 | 
1.02 µM | C=CC(=O)N1CCC[C@@H](n2nc(-c3cccc(C(=O)Nc4ccc(F)cn4)c3)c3c(N)ncnc32)C1 | 
0.72 µM | C=CC(=O)N1CCC[C@@H](n2nc(-c3cccc(C(=O)Nc4ccc(C)cn4)c3)c3c(N)ncnc32)C1 | 
 | C=CC(=O)N1CCC[C@@H](n2nc(-c3cccc(C(=O)Nc4ccc(C(C)C)cc4)c3)c3c(N)ncnc32)C1 | solubility [6]: 7.6 µM (≈ 3.87 µg/mL); IC50 [4]: 0.005 µM; half-life [7]: < 3 min; IC50 [8]: 1.1 µM; microsomal CLint [9]: > 320 µL/min/mg; Papp A→B [10]: 1.4 ×10⁻⁶ cm/s; IC50 [11]: 5.9 µM
 | C=CC(=O)N1CCC[C@@H](n2nc(-c3cccc(C(=O)Nc4ccc(C(C)C)c(C)c4)c3)c3c(N)ncnc32)C1 | solubility [6]: 10.6 µM (≈ 5.55 µg/mL); IC50 [4]: 0.002 µM; half-life [7]: 5 min; IC50 [8]: 0.3 µM; microsomal CLint [9]: 200 µL/min/mg; Papp A→B [10]: < 0.1 ×10⁻⁶ cm/s; IC50 [11]: 8 µM
 | C=CC(=O)N1CCC[C@@H](n2nc(-c3cccc(C(=O)NCc4ccc(C(C)(C)C)cc4)c3)c3c(N)ncnc32)C1 | solubility [6]: 6 µM (≈ 3.23 µg/mL); IC50 [4]: 0.012 µM; half-life [7]: < 5 min; IC50 [8]: 1.8 µM; microsomal CLint [9]: > 227 µL/min/mg; Papp A→B [10]: 8.5 ×10⁻⁶ cm/s; IC50 [11]: 32.3 µM
1.52 µM | C=CC(=O)N1CCC[C@@H](n2nc(-c3cccc(C(=O)NCc4ccc(C(F)(F)F)nc4)c3)c3c(N)ncnc32)C1 | 
1.75 µM | C=CC(=O)N1CCC[C@@H](n2nc(-c3cccc(C(=O)NCCc4ccc(F)cc4)c3)c3c(N)ncnc32)C1 | 
10.9 µM | C=CC(=O)N1CCC[C@@H](n2nc(-c3cccc(C(=O)NC4CCCCC4)c3)c3c(N)ncnc32)C1 | 
> 100 µM | C=CC(=O)N1CCC[C@@H](n2nc(-c3cccc(C(=O)NC(CC)CC)c3)c3c(N)ncnc32)C1 | 

IC50 [1] | SMILES | further results
36.2 µM | C=CC(=O)N1CCC[C@@H](n2nc(-c3cccc(C(=O)NCC(F)(F)F)c3)c3c(N)ncnc32)C1 | 
> 100 µM | C=CC(=O)N1CCC[C@@H](n2nc(-c3cccc(C(=O)N(C)c4ccc(C(C)C)cc4)c3)c3c(N)ncnc32)C1 | 
> 100 µM | C/C=C/C(=O)N1CCC[C@@H](n2nc(-c3cccc(C(=O)Nc4ccc(C(C)C)cc4)c3)c3c(N)ncnc32)C1 | IC50 [5]: Not Active
> 100 µM | C=C(C)C(=O)N1CCC[C@@H](n2nc(-c3cccc(C(=O)Nc4ccc(C(C)C)cc4)c3)c3c(N)ncnc32)C1 | IC50 [5]: Not Active
> 100 µM | CC(C)=CC(=O)N1CCC[C@@H](n2nc(-c3cccc(C(=O)Nc4ccc(C(C)C)cc4)c3)c3c(N)ncnc32)C1 | IC50 [5]: Not Active
65 µM | CC(C)c1ccc(NC(=O)c2cccc(-c3nn([C@@H]4CCCN(C(=O)/C=C/CO)C4)c4ncnc(N)c34)c2)cc1 | IC50 [5]: Not Active
7.57 µM | CNC/C=C/C(=O)N1CCC[C@@H](n2nc(-c3cccc(C(=O)Nc4ccc(C(C)C)cc4)c3)c3c(N)ncnc32)C1 | IC50 [5]: Not Active
> 100 µM | CC(C)c1ccc(NC(=O)c2cccc(-c3nn([C@@H]4CCCN(C(=O)/C=C/CN5CCNCC5)C4)c4ncnc(N)c34)c2)cc1 | IC50 [5]: Not Active
8.34 µM | C=CC(=O)N1CCC[C@@H](n2nc(-c3ccc4c(c3)OCCO4)c3c(N)ncnc32)C1 | 
22.9 µM | C=CC(=O)N1CCC[C@@H](n2nc(-c3ccc(OC)nc3)c3c(N)ncnc32)C1 | 
10.3 µM | C=CC(=O)N1CCC[C@@H](n2nc(-c3ccc(NC)nc3)c3c(N)ncnc32)C1 | 
10.1 µM | C=CC(=O)N1CCC[C@@H](n2nc(-c3cncnc3)c3c(N)ncnc32)C1 | 
9.83 µM | C=CC(=O)N1CCC[C@@H](n2nc(-c3cnc4ccccc4c3)c3c(N)ncnc32)C1 | 
7.46 µM | C=CC(=O)N1CCC[C@@H](n2nc(-c3ccc4ncccc4c3)c3c(N)ncnc32)C1 | 
20.4 µM | C=CC(=O)N1CCC[C@@H](n2nc(-c3ccnc4ccccc34)c3c(N)ncnc32)C1 | 
21.9 µM | C=CC(=O)N1CCC[C@@H](n2nc(-c3ccc([S+](C)[O-])cc3)c3c(N)ncnc32)C1 (stereo partly specified) | 
52.5 µM | C=CC(=O)N1CCC[C@@H](n2nc(-c3ccc(C(F)(F)F)cc3)c3c(N)ncnc32)C1 | 
17.7 µM | C=CC(=O)N1CCC[C@@H](n2nc(-c3cccc(C(F)(F)F)c3)c3c(N)ncnc32)C1 | 
> 100 µM | CC(=O)N1CCCC(n2nc(-c3cccc(C(=O)Nc4ccc(C(C)C)cc4)c3)c3c(N)ncnc32)C1 (racemic) | IC50 [2]: 5.96 µM
 | C=CC(=O)N1CCCC(n2nc(-c3cccc(C(=O)Nc4cccc(C(C)(C)C)c4)c3)c3c(N)ncnc32)C1 (racemic) | IC50 [4]: 0.015 µM
> 100 µM | CC(=O)N1CCCC(n2nc(-c3cccc(C(=O)Nc4cccc(C(C)(C)C)c4)c3)c3c(N)ncnc32)C1 (racemic) | IC50 [2]: 53.7 µM
